# Measurements reported in article PMC8805605, “Discovery of Dimeric Arylsulfonamides as Potent ADAM8 Inhibitors” (ACS Medicinal Chemistry Letters, 2021).
# Molecular target: T1, MMP-2 (Homo sapiens, UniProt P08253)
# T1 construct: purchased Calbiochem (Merck-Millipore)
# T1 sequence (P08253 110-660): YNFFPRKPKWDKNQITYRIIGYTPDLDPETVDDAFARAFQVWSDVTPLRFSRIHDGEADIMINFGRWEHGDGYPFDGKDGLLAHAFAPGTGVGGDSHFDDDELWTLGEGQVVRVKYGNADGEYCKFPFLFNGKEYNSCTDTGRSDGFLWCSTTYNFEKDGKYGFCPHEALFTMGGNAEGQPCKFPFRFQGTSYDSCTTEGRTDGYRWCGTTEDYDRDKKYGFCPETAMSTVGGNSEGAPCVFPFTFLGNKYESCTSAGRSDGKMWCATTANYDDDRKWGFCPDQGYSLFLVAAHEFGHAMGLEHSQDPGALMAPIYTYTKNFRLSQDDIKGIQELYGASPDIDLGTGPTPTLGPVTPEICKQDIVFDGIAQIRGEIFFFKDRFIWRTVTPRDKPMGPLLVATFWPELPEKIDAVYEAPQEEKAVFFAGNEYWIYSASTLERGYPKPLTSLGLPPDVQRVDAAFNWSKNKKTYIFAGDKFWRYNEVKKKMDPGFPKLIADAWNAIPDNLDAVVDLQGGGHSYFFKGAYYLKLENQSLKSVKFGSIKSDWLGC
# Test: MMP-2 fluorometric inhibition assay
# Assay type: biochemical
# Conditions: mean of three independent experiments in duplicate, read-out: In vitro inhibitory activity IC50 on MMP-2
# Method: The newly synthesized bivalent derivatives 1–3 were then tested in vitro on human recombinant ADAM8 in comparison with JG26 by a fluorometric assay. The inhibitory activity against a panel of MMPs and ADAM10/17 was determined as well to assess their selectivity profile. […]
# VI. Biological Activity on Isolated Enzymes
# MMP and ADAM10 inhibition assays.
# Recombinant human MMP-14 catalytic domain was a kind gift of Prof. Gillian Murphy (Department of […]
# Oncology, University of Cambridge, UK). Pro-MMP-1, pro-MMP-2, and pro-MMP-9, were purchased […]
# from Calbiochem (Merck-Millipore). Pro-MMP-12 and ADAM10 were purchased from R&D Systems.
# Proenzymes were activated immediately prior to use with p-aminophenylmercuric acetate (APMA 2 […]
# mM for 1 h at 37°C for MMP-2 and MMP-1, 1 mM for 1 h at 37°C for MMP-9). Pro-MMP-12 was […]
# auto activated by incubating in the fluorometric assay buffer (FAB: Tris 50 mM, pH = 7.5, NaCl 150 […]
# mM, CaCl2 10 mM, Brij 35 0.05% and DMSO 1%) for 30 h at 37°C. For assay measurements, each […]
# inhibitor stock solution (DMSO, 10 mM) was further diluted in FAB at seven different concentrations.
# Activated enzyme (final concentration 0.56 nM for MMP-2, 1.3 nM for MMP-9, 1.0 nM for MMP- […]
# 14cd, 2.0 nM for MMP-1, 2.3 nM for MMP-12 and 20 nM for ADAM10) and inhibitor solutions were […]
# incubated in the assay buffer for 3 h at 25 °C. ADAM10 was incubated for 1 h at 37°C in a different […]
# buffer at pH 9 (Tris 25 mM, ZnCl2 25 µM, Brij-35 0.005 %). After the addition of 200 µM solution of […]
# the fluorogenic substrate Mca-Lys-Pro-Leu-Gly-Leu-Dap(Dnp)-Ala-Arg-NH2 (Bachem) for all the […]
# enzymes in DMSO (final concentration 2 µM for all enzymes, 10 µM for ADAM10), the hydrolysis […]
# was monitored every 10 sec. for 15 min. recording the increase in fluorescence (λ ex = 325 nm, λ em = […]
# 400 nm) using a Molecular Devices SpectraMax Gemini XPS plate reader. The assays were performed […]
# in triplicate in a total volume of 200 μL per well in 96-well microtitre plates (Corning, black, NBS).
# Control wells lack inhibitor. The MMP inhibition activity was expressed in relative fluorescent units […]
# (RFU). Percent of inhibition was calculated from control reactions without the inhibitor. IC50 was determined using the formula: v i/v o = 1/(1 + [I]/ IC50), where v i is the initial velocity of substrate cleavage in the presence of the inhibitor at concentration [I] and v o is the initial velocity in the absence of the inhibitor. Results were analyzed using SoftMax Pro software (version 5.4.3, Molecular Devices, Sunnyvale, CA) and Prism Software version 5.0 (GraphPad Software, Inc., La Jolla, CA, USA).
# ADAM8 and ADAM17 inhibition assays […]
row,Compound,IC50
1,O=C(CCCNC(=O)c1cccc(C(=O)NCCCC(=O)NCCC[C@@H](NS(=O)(=O)c2ccc(OCc3cc(Br)cc(Br)c3)cc2)C(=O)NO)c1)NCCC[C@@H](NS(=O)(=O)c1ccc(OCc2cc(Br)cc(Br)c2)cc1)C(=O)NO [Compound 1],4660 nM
2,O=C(NCCC[C@@H](NS(=O)(=O)c1ccc(OCc2cc(Br)cc(Br)c2)cc1)C(=O)NO)c1cccc(C(=O)NCCC[C@@H](NS(=O)(=O)c2ccc(OCc3cc(Br)cc(Br)c3)cc2)C(=O)NO)c1 [Compound 2],3000 nM
3,O=C(NCCC[C@@H](NS(=O)(=O)c1ccc(OCc2cc(Br)cc(Br)c2)cc1)C(=O)NO)NCCC[C@@H](NS(=O)(=O)c1ccc(OCc2cc(Br)cc(Br)c2)cc1)C(=O)NO [Compound 3],900 nM
4,"NC(=O)NCCC[C@@H](NS(=O)(=O)c1ccc(OCc2cc(Br)cc(Br)c2)cc1)C(=O)NO [JG26, reference compound]",240 nM
